Laboratory results taken from PubChem BioAssay (NCI).
Values joined by “and” are separate entries in the source; they are usually repeats but may differ in a detail not shown here. Equal entries are not always repeated.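 Step 1: Grow cells in 96-well plates. Step 2: Expose to compound for 48 hours at 5 concentrations. Step 3: Interpolate endpoints linearly; if unreached, use highest concentration. GI50 is the concentration that inhibits growth by half. TGI marks complete inhibition of growth.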

Legend:
Experiment in all cases: NCI tumour cell line growth inhibition, 48 h
TK-10 renal = system: TK-10 renal
NCI-H23 lung = system: NCI-H23 lung
MALME-3M melanoma = system: MALME-3M melanoma
CCRF-CEM leukemia = system: CCRF-CEM leukemia
SW-620 colon = system: SW-620 colon
A498 renal = system: A498 renal
UACC-257 melanoma = system: UACC-257 melanoma
OVCAR-5 ovarian = system: OVCAR-5 ovarian
SNB-75 CNS = system: SNB-75 CNS
SK-MEL-28 melanoma = system: SK-MEL-28 melanoma

## C#Cc1ccc(-n2c(/C=C/c3ccc(C(F)(F)F)cc3)nc3ncccc3c2=O)cc1
TK-10 renal
  GI50: 2.19 µM
  TGI: 3.7 µM
NCI-H23 lung
  GI50: 3.9 µM
  TGI: 19 µM
MALME-3M melanoma
  GI50: 1.64 µM
  TGI: 3.57 µM
CCRF-CEM leukemia
  GI50: 1.95 µM
  TGI: > 100 µM
SW-620 colon
  GI50: 1.92 µM
  TGI: 3.76 µM
A498 renal
  GI50: 2.34 µM
  TGI: 5.76 µM
UACC-257 melanoma
  GI50: 1.56 µM
  TGI: 2.95 µM
OVCAR-5 ovarian
  GI50: 1.94 µM
  TGI: 3.56 µM
SNB-75 CNS
  GI50: 1.81 µM
  TGI: 7.22 µM
SK-MEL-28 melanoma
  GI50: 1.78 µM
  TGI: 3.26 µM

## O=C(N/C(=C\c1ccc(/C=C(\NC(=O)c2ccccc2)c2nc3cc([N+](=O)[O-])ccc3[nH]2)cc1)c1nc2cc([N+](=O)[O-])ccc2[nH]1)c1ccccc1
TK-10 renal
  TGI: 78.5 µM
NCI-H23 lung
  TGI: > 100 µM
MALME-3M melanoma
  TGI: > 100 µM
CCRF-CEM leukemia
  TGI: > 100 µM
SW-620 colon
  TGI: > 100 µM
A498 renal
  TGI: > 100 µM
UACC-257 melanoma
  TGI: > 100 µM
OVCAR-5 ovarian
  TGI: > 100 µM
SNB-75 CNS
  TGI: > 100 µM
SK-MEL-28 melanoma
  TGI: 69.8 µM

## Cn1cnc([N+](=O)[O-])c1Sc1nnc(-c2cccnc2)n1C
TK-10 renal
  TGI: 32.8 µM
NCI-H23 lung
  TGI: 51.7 µM
MALME-3M melanoma
  TGI: 33.2 µM
CCRF-CEM leukemia
  TGI: 45 µM
SW-620 colon
  TGI: 31.3 µM
A498 renal
  TGI: > 100 µM
UACC-257 melanoma
  TGI: 23 µM
OVCAR-5 ovarian
  TGI: > 100 µM
SNB-75 CNS
  TGI: > 100 µM
SK-MEL-28 melanoma
  TGI: 35.6 µM

## Clc1ccc2c(NCCCCNc3nc(N4CCCCC4)nc4ccccc34)ccnc2c1
TK-10 renal
  GI50: 1.68 µM
  TGI: 3.5 µM
NCI-H23 lung
  GI50: 4.67 µM
  TGI: 19.2 µM
MALME-3M melanoma
  GI50: 1.85 µM
  TGI: 3.48 µM
CCRF-CEM leukemia
  GI50: 1.66 µM
  TGI: 5.23 µM
SW-620 colon
  GI50: 1.59 µM
  TGI: 4.78 µM
A498 renal
  GI50: 1.78 µM
  TGI: 4.62 µM
UACC-257 melanoma
  GI50: 2.05 µM
  TGI: 3.68 µM
OVCAR-5 ovarian
  GI50: 2.17 µM
  TGI: 9.23 µM
SNB-75 CNS
  GI50: 1.32 µM
  TGI: 3.13 µM
SK-MEL-28 melanoma
  GI50: 1.89 µM
  TGI: 3.82 µM

## O=C(/C=C/c1ccccc1)NC1C=Nc2ccc(Cl)cc2NC1=O (configuration not stated)
TK-10 renal
  TGI: > 100 µM
NCI-H23 lung
  TGI: > 100 µM
MALME-3M melanoma
  TGI: 85.1 µM
CCRF-CEM leukemia
  TGI: 33.5 µM
SW-620 colon
  TGI: 24.2 µM
A498 renal
  TGI: > 100 µM
UACC-257 melanoma
  TGI: 87 µM
OVCAR-5 ovarian
  TGI: > 100 µM
SNB-75 CNS
  TGI: 62.9 µM
SK-MEL-28 melanoma
  TGI: > 100 µM

## CCCCC(=O)OCC(=O)[C@]1(O)Cc2c(O)c3c(c(O)c2[C@@H](OC2CC(NC(=O)C(F)(F)F)C(O)C(C)O2)C1)C(=O)c1c(OC)cccc1C3=O (some centres not stated)
TK-10 renal
  TGI: 15.1 µM
NCI-H23 lung
  TGI: 1.98 µM
MALME-3M melanoma
  TGI: 2.76 µM
CCRF-CEM leukemia
  TGI: > 73.6 µM
SW-620 colon
  TGI: > 52.4 µM
A498 renal
  TGI: 0.948 µM
UACC-257 melanoma
  TGI: 8.08 µM
OVCAR-5 ovarian
  TGI: 7.49 µM
SNB-75 CNS
  TGI: 4.37 µM
SK-MEL-28 melanoma
  TGI: 12.2 µM

## O=C1C=C(Cl)C(=O)C(c2ccc(Cl)cc2)=C1
TK-10 renal
  TGI: 35.9 µM
NCI-H23 lung
  TGI: 67.3 µM
MALME-3M melanoma
  TGI: 39 µM
CCRF-CEM leukemia
  TGI: 15.9 µM
SW-620 colon
  TGI: 89.5 µM
A498 renal
  TGI: 50.8 µM
UACC-257 melanoma
  TGI: 40.7 µM
OVCAR-5 ovarian
  TGI: 39.6 µM
SNB-75 CNS
  TGI: 59.8 µM
SK-MEL-28 melanoma
  TGI: 43.4 µM

## O=C1C(=O)N(c2ccc(Cl)cc2Cl)C(=O)C(=O)C1c1nc2ccccc2s1
TK-10 renal
  TGI: > 100 µM
NCI-H23 lung
  TGI: > 100 µM
MALME-3M melanoma
  TGI: > 100 µM
CCRF-CEM leukemia
  TGI: 88.9 µM
SW-620 colon
  TGI: > 100 µM
A498 renal
  TGI: > 100 µM
UACC-257 melanoma
  TGI: > 100 µM
OVCAR-5 ovarian
  TGI: > 100 µM
SNB-75 CNS
  TGI: 81.8 µM
SK-MEL-28 melanoma
  TGI: > 100 µM

## N#CC(c1ccc(Cl)cc1)c1cccc(C(C#N)c2ccc(Cl)cc2)n1 (configuration not stated)
TK-10 renal
  TGI: 69.9 µM
NCI-H23 lung
  TGI: 57 µM
MALME-3M melanoma
  TGI: > 100 µM
CCRF-CEM leukemia
  TGI: > 100 µM
SW-620 colon
  TGI: > 100 µM
A498 renal
  TGI: 10.9 µM
UACC-257 melanoma
  TGI: > 100 µM
OVCAR-5 ovarian
  TGI: > 100 µM
SNB-75 CNS
  TGI: 79.4 µM
SK-MEL-28 melanoma
  TGI: > 100 µM

## NC(=O)c1cccc2cn(-c3ccc([C@@H]4CCCNC4)cc3)nc12
TK-10 renal
  GI50: 24.1 µM
  TGI: 63.2 µM
NCI-H23 lung
  GI50: 11.3 µM
  TGI: 45 µM
MALME-3M melanoma
  GI50: 15.2 µM
  TGI: 30.5 µM
CCRF-CEM leukemia
  GI50: 5.54 µM
  TGI: 97.7 µM
SW-620 colon
  GI50: 10.4 µM
  TGI: 51.3 µM
A498 renal
  GI50: 19.2 µM
  TGI: 40.8 µM
UACC-257 melanoma
  GI50: 15.8 µM
  TGI: 30.7 µM
OVCAR-5 ovarian
  GI50: 24 µM
  TGI: 64.8 µM
SNB-75 CNS
  GI50: 11.8 µM
  TGI: 25.5 µM
SK-MEL-28 melanoma
  GI50: 16.3 µM
  TGI: 30.7 µM

## COC1CCC2C(NS(=O)(=O)c3ccc(C)cc3)CCCC2O1 (configuration not stated) (tested in a mixture with another compound)
TK-10 renal
  TGI: > 34.5 µM
NCI-H23 lung
  TGI: > 34.5 µM
MALME-3M melanoma
  TGI: > 34.5 µM
CCRF-CEM leukemia
  TGI: > 34.5 µM
SW-620 colon
  TGI: > 34.5 µM
A498 renal
  TGI: > 34.5 µM
UACC-257 melanoma
  TGI: > 34.5 µM
OVCAR-5 ovarian
  TGI: > 34.5 µM
SNB-75 CNS
  TGI: > 34.5 µM
SK-MEL-28 melanoma
  TGI: > 34.5 µM

## CCOc1ccc(NC(=O)C(=O)CC(=O)c2c[n+](=O)c3cc(C)c(C)cc3n2[O-])cc1
TK-10 renal
  TGI: > 100 µM
NCI-H23 lung
  TGI: > 100 µM
MALME-3M melanoma
  TGI: > 100 µM
CCRF-CEM leukemia
  TGI: > 100 µM
SW-620 colon
  TGI: > 100 µM
A498 renal
  TGI: > 100 µM
UACC-257 melanoma
  TGI: > 100 µM
OVCAR-5 ovarian
  TGI: > 100 µM
SNB-75 CNS
  TGI: > 100 µM
SK-MEL-28 melanoma
  TGI: > 100 µM

## O=C(CC1(O)C(=O)Nc2c(Cl)cc(Cl)cc21)c1ccc(Br)cc1Br (configuration not stated)
TK-10 renal
  TGI: 32 µM
NCI-H23 lung
  TGI: 21.2 µM
MALME-3M melanoma
  TGI: 23.7 µM
CCRF-CEM leukemia
  TGI: 3.21 µM
SW-620 colon
  TGI: 10.7 µM
A498 renal
  TGI: 40 µM
UACC-257 melanoma
  TGI: 22.9 µM
OVCAR-5 ovarian
  TGI: 31.9 µM
SNB-75 CNS
  TGI: 36.6 µM
SK-MEL-28 melanoma
  TGI: 27.7 µM

## CC12CCC(O)CC1CCC1C2CCC2(C)C(C3=CC(=O)OC3)CCC12O (configuration not stated)
TK-10 renal
  TGI: > 35.4 µM
NCI-H23 lung
  TGI: 4.76 µM
MALME-3M melanoma
  TGI: 4.89 µM
CCRF-CEM leukemia
  TGI: > 100 µM
SW-620 colon
  TGI: > 36.8 µM
A498 renal
  TGI: 25.6 µM
UACC-257 melanoma
  TGI: > 43.4 µM
OVCAR-5 ovarian
  TGI: 16.9 µM
SNB-75 CNS
  TGI: 28.7 µM
SK-MEL-28 melanoma
  TGI: 33.7 µM

## CCCCCCCCCCCOc1ccc(C(=O)C(=O)c2ccc(OCCCCCCCCCCC)c(OCCCCCCCCCCC)c2)cc1OCCCCCCCCCCC
TK-10 renal
  TGI: > 100 µM
NCI-H23 lung
  TGI: > 100 µM
MALME-3M melanoma
  TGI: > 100 µM
CCRF-CEM leukemia
  TGI: > 100 µM
SW-620 colon
  TGI: > 100 µM
A498 renal
  TGI: > 100 µM
UACC-257 melanoma
  TGI: > 100 µM
OVCAR-5 ovarian
  TGI: > 100 µM
SNB-75 CNS
  TGI: 95.7 µM
SK-MEL-28 melanoma
  TGI: > 100 µM

## COC(=O)[C@@H]1[C@H](O)[C@H](C)[C@H](O)[C@@](C)(O)/C=C\C=C(C)C(=O)Nc2c(C)c(OC(C)=O)c3c(c2O)C(=O)C(C)=C2OCOC(=C23)C(C)=C[C@@](C)(O)[C@H](O)[C@@H](C)[C@H]1OC(C)=O
TK-10 renal
  TGI: > 100 µM
NCI-H23 lung
  TGI: > 100 µM and 66.9 µM and 47.8 µM
MALME-3M melanoma
  TGI: > 100 µM and 66.9 µM and 88.6 µM
CCRF-CEM leukemia
  GI50: 12.8 µM
  TGI: > 100 µM and 66.9 µM and 47.6 µM
SW-620 colon
  TGI: > 100 µM and 21 µM
A498 renal
  TGI: > 100 µM
UACC-257 melanoma
  GI50: 35.2 µM
  TGI: > 100 µM and 66.9 µM and 93.1 µM
OVCAR-5 ovarian
  TGI: > 100 µM
SNB-75 CNS
  TGI: > 100 µM
SK-MEL-28 melanoma
  TGI: > 100 µM

## COc1cc(-c2nn(-c3ccc(NC(=O)c4ccc(Cl)c(C(F)(F)F)c4)cc3)cc2-c2ccncc2)ccc1Cl
TK-10 renal
  GI50: 4.56 µM
  TGI: > 100 µM
NCI-H23 lung
  GI50: 3.06 µM
  TGI: > 100 µM
MALME-3M melanoma
  GI50: 1.46 µM
  TGI: 5.05 µM
CCRF-CEM leukemia
  GI50: 2.5 µM
  TGI: > 100 µM
SW-620 colon
  GI50: 3.31 µM
  TGI: > 100 µM
A498 renal
  GI50: 2.4 µM
  TGI: 17.9 µM
UACC-257 melanoma
  GI50: 6.91 µM
  TGI: > 100 µM
OVCAR-5 ovarian
  GI50: 4.58 µM
  TGI: > 39.6 µM
SNB-75 CNS
  GI50: 1.23 µM
  TGI: 6.83 µM
SK-MEL-28 melanoma
  GI50: 2.62 µM
  TGI: > 61.9 µM
